Values joined by “and” are separate entries in the source; they are usually repeats but may differ in a detail not shown here. Equal values may be shown once. Read-outs that look alike come from different tables or passages of the source.
Tests used:
[1] = biological target: T1, AKeco (Escherichia coli, UniProt P69441); conditions: binding to AKeco; cited from earlier work
[2] = biological target: T2, AK3 (Homo sapiens, UniProt Q9UIJ7); experiment: coupled enzymatic assay of AK3 activity; assay type: biochemical
[3] = biological target: T2, AK3; experiment: isothermal titration calorimetry; assay type: binding; conditions: for ΔHITC0: ITC binding enthalpy; for ΔHITC0 / −TΔSITC0 / ΔGITC0 / Kd: 25 °C; for −TΔSITC0: ITC binding entropy term; for ΔGITC0: ITC binding free energy; for n: ITC binding ratio (stoichiometry); for Kd: ITC
[4] = biological target: T2, AK3; experiment: NMR 15N-HSQC chemical shift titration of ligand binding to AK3
[5] = biological target: human α-synuclein (Homo sapiens, UniProt P37840); experiment: NMR titration of ATP to α-synuclein; assay type: binding
[6] = biological target: T1, AKeco; experiment: NMR titration of ATP to AKeco with adenosine binding sites blocked by AP5A; design: species or system E. coli
[7] = biological target: T2, AK3; experiment: biochemical; conditions: KI´ (competitive inhibition), mixed inhibition model, 1.7 mM ATP, AMP variation
[8] = biological target: LcrG (Yersinia pseudotuberculosis serotype I, UniProt P69958); experiment: biochemical; assay type: binding
[9] = tested on: AKeco (E. coli adenylate kinase); conditions: cited from earlier work
[10] = Table 2, average of three technical replicates, pH 7.0

T2 sequence (Q9UIJ7 whole entry): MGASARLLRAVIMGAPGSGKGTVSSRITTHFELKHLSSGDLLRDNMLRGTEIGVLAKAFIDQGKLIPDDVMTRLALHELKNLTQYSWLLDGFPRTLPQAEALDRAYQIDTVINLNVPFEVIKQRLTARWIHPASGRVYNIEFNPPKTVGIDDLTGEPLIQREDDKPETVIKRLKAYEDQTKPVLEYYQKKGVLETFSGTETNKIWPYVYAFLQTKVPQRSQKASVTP
T1 sequence (P69441 whole entry): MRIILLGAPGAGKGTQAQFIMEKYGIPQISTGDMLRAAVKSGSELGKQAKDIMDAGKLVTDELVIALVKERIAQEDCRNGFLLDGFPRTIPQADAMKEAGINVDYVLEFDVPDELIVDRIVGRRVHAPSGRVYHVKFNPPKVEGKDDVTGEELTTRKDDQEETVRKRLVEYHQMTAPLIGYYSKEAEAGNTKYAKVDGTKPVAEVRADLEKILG
Chain of LcrG (P69958 whole entry, looked up): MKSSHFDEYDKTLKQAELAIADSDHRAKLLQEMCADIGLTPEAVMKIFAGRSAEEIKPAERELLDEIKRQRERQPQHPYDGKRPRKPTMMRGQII

**Q.** Which Kd [1] does the source give for Nc1ncnc2c1ncn2[C@@H]1O[C@H](COP(=O)(O)O)[C@@H](O)[C@H]1O [AMP, adenosine monophosphate] here?
**A.** 210 ± 66 µM

**Q.** Which “catalytic GTP versus ATP specificity” value [2] does the source give for Nc1nc2c(ncn2[C@@H]2O[C@H](COP(=O)(O)OP(=O)(O)OP(=O)(O)O)[C@@H](O)[C@H]2O)c(=O)[nH]1 [GTP, guanosine triphosphate] here?
**A.** ~40 fold

**Q.** What about the ΔHITC0 ([3]; pH 7.0) of the same compound?
**A.** −11.3 ± 0.3 kcalmol^−1

**Q.** And the “−TΔSITC0” value ([3]; pH 7.0)?
**A.** 3.5 ± 0.4 kcalmol^−1

**Q.** And the ΔGITC0 ([3]; pH 7.0)?
**A.** −7.8 ± 0.1 kcalmol^−1

**Q.** What about the n [3] of the same compound?
**A.** 1.07 ± 0.025

**Q.** And the Kd ([3]; 30 mM MOPS pH 7.0, 50 mM NaCl)?
**A.** ~2 µM and 2 µM

**Q.** What about the Kd [3, 10] of the same compound?
**A.** 2.1 ± 0.5 µM

**Q.** What about the Kd [4] of the same compound?
**A.** 1700 ± 1000 µM

**Q.** For Nc1ncnc2c1ncn2[C@@H]1O[C@H](COP(=O)(O)OP(=O)(O)OP(=O)(O)O)[C@@H](O)[C@H]1O [ATP, adenosine triphosphate], which Kd [5] is on record?
**A.** 13000 ± 2400 µM

**Q.** What about the ΔHITC0 ([3]; pH 7.0) of the same compound?
**A.** −11.1 ± 0.5 kcalmol^−1

**Q.** And the “−TΔSITC0” value ([3]; pH 7.0)?
**A.** 4.4 ± 0.6 kcalmol^−1

**Q.** And the ΔGITC0 ([3]; pH 7.0)?
**A.** −6.7 ± 0.1 kcalmol^−1

**Q.** What about the n [3] of the same compound?
**A.** 0.94 ± 0.015

**Q.** And the Kd ([3]; 30 mM MOPS pH 7.0, 50 mM NaCl)?
**A.** ~13 µM

**Q.** And the Kd [3, 10]?
**A.** 13 ± 2 µM

**Q.** And the Kd [6]?
**A.** 12000 ± 2100 µM

**Q.** And the Kd [4]?
**A.** 9000 ± 3800 µM

**Q.** And the Ki [7]?
**A.** 200 µM

**Q.** What about the Kd [8] of the same compound?
**A.** 12000 ± 800 µM

**Q.** And the Kd [1]?
**A.** 50 µM

**Q.** And the Km ([9]; AKeco with ATP)?
**A.** 63 ± 7 µM

**Q.** And the “difference of the catalytic activity between ATP and GTP” value ([9]; AKeco)?
**A.** 60 fold
